For experiment [1], the target named is T1, phosphorylated ERBB2 (pERBB2) (Homo sapiens, UniProt P04626).
T1 construct: endogenous in cells; host or cells: BT-474
Kind of experiment: Detection of phosphorylated ERBB2 (pERBB2) by ELISA in BT-474 cells. To be noted: four hour incubation. The format is cell-based. How it is done: BT-474 cells were seeded into a 96-well at 2.0*10^4 cells/100 μl/well. Compounds were dissolved and serially diluted in DMSO. The compounds were then were added, mixed, and incubated for four hours at 37° C., 5% CO2. Compounds were added using four-fold dilutions at final concentrations ranging from 10 μM to 0.01 nM. Following the four hour incubation with compounds, cell lysates were prepared. Plates were centrifuged for 5 μmin at 3000 RPM, and supernatant was removed from each well. Cells were washed 3 times by resuspension in 150 μl PBS, followed by centrifugation and removal of the supernatant, as above. 100 μl of cell lysis buffer (Boston BioProducts, cat #BP-115D) supplied with 1× complete ULTRA cocktail inhibitor (Thermo ScientificTM, cat #78443) was then added to the washed cells. Cells were incubated with lysis buffer for 1 hour at 4° C., and then stored at -80° C. Enzyme-linked immunosorbent assays (ELISA) were performed to measure phosphorylated ERBB2 levels. […] The next day, plates were washed with PBS+0.05% Tween20 (PBST). 150 μl of 5% BSA blocking solution was added for 1 hour at room temperature, with shaking. Plates were washed with PBST. Cell lysates were thawed and 100 μl of lysate was added to the ELISA plate. The plates were incubated for 2 hours at room temperature, with shaking. ELISA plates were then washed with PBST and 100 μl of an HRP-labeled detection antibody that binds phosphorylated tyrosine (R&D Systems, cat #841913) was added to each well. Plates were incubated for 1 hour at room temperature, with shaking. Plates were then washed with PBST, and 100 μl TMB substrate solution (R&D Systems, cat #DY999) was added. Plate were incubated in the dark for 20 minutes at room temperature. 50 μl of Stop solution (R&D Systems, cat #DY994) (50 μl) was added to each well and mixed. Optical density at 450 nm was read on an EnSpire plate reader (Perkin Elmer). The remaining kinase activity by calculated using the following formula: % Relative activity=100×([…]). The low and high control values (“LC” and “HC”) were generated from lysate from wells without cells or with cells treated with 0.1% DMSO, respectively.
(In general: ELISA stands for enzyme-linked immunosorbent assay.)

In experiment [2] the target is T2, phosphorylated EGFR (pEGFR) (Homo sapiens, UniProt P00533).
T2 construct: performed to measure phosphorylated EGFR levels using A431 cells (10% FBS); endogenous in cells; host or cells: A431
Put plainly: Detection of phosphorylated EGFR (pEGFR) by AlphaLISA in EGF-stimulated A431 cells. The format is cell-based. To be noted: A431 cells (10% FBS), 4 hours incubation, EGF 30 ng/mL for 10 minutes. How it is done:
Enzyme-linked immunosorbent assays (ELISA) were performed to measure phosphorylated EGFR levels using A431 cells (10% FBS). A431 (1.0*10^4 cells/40 μl/well) cells were seeded in 384 well. Compounds were dissolved in DMSO, serially diluted in DMSO and then were added, mixed, and incubated for 4 hours at 37° C., 5% C02. Following the 4-hours incubation, cells were stimulated for 10 minutes with EGF (Invitrogen, cat #PHG0311) at a final concentration of 30 ng/mL in the incubator. The media was aspirated and cells were lysed in 10 μL lysis buffer with protease and phosphatase inhibitors (PerkinElmer, cat #ALSU-PEGFR-A50K). The plates were placed on a shaker for 5 μminutes and then incubated for 30 min at 4° C. for complete lysis. The lysate was transferred to an Optiplate (Perkin Elmer, cat #6007290).
Acceptor mix (PerkinElmer, cat #ALSU-PEGFR-A50K) was prepared just before use and 5 μL was dispensed to all the wells, followed by a 1.5-2 h incubation at room temperature in dark. The donor mix (PerkinElmer, cat #ALSU-PEGFR-A50K) was prepared under low light conditions prior to use and 5 μl of donor mix was added to all the wells under subdued lighting or green filters. The plates were placed on a shaker for 5 μmin, sealed, and incubated overnight at room temperature in dark. Plates were read on the Envision (PerkinElmer) using standard AlphaLISA settings.
The percentage of inhibition on EGFR phosphorylation was calculated following equation: % Inhibition=100×(LumHC−LumSample)/(LumHC−LumLC). The low and high controls (LC/HC) are generated from lysate from wells with cells treated with DMSO or […] Staurosporine (BioAustralis, cat #BIA-S1086), […]. IC50 values were calculated by fitting the Curve using XLfit (v5.3.1.3), equation 201: Y=Bottom+(Top−Bottom)/(1+10^((Log IC50−X)*HillSlope)).

T1 sequence (P04626 23-1255): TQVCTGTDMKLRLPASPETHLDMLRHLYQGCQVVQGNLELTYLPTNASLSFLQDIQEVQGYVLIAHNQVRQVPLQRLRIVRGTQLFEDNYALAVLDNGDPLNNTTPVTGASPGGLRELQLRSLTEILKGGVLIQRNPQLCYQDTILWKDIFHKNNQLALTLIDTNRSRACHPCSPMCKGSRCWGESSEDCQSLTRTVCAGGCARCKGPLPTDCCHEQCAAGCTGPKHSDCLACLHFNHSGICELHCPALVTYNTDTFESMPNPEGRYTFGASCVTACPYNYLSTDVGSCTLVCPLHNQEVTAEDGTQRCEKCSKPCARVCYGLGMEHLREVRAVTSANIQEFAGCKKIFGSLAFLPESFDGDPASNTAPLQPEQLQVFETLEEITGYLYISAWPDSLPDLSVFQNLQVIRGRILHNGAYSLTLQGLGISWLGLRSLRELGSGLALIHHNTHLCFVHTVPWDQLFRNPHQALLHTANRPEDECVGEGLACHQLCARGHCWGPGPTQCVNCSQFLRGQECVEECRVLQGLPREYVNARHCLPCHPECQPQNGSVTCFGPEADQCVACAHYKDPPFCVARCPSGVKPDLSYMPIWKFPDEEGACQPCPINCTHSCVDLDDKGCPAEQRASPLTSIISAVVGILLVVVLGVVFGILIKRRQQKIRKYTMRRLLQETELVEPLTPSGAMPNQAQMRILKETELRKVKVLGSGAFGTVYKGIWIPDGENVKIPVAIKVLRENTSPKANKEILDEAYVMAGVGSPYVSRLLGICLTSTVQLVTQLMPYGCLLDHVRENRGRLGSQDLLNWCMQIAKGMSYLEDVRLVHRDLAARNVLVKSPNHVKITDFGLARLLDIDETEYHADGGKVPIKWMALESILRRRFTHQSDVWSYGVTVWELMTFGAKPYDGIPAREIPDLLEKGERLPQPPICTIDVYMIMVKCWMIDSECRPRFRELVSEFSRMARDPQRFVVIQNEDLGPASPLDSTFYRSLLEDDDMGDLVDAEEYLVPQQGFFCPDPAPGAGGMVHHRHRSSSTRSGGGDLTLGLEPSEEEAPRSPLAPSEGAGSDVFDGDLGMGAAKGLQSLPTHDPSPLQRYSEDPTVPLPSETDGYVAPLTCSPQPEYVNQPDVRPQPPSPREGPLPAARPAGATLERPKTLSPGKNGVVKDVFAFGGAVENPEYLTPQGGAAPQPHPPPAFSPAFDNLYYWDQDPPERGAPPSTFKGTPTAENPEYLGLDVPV
T2 sequence (P00533 25-1210): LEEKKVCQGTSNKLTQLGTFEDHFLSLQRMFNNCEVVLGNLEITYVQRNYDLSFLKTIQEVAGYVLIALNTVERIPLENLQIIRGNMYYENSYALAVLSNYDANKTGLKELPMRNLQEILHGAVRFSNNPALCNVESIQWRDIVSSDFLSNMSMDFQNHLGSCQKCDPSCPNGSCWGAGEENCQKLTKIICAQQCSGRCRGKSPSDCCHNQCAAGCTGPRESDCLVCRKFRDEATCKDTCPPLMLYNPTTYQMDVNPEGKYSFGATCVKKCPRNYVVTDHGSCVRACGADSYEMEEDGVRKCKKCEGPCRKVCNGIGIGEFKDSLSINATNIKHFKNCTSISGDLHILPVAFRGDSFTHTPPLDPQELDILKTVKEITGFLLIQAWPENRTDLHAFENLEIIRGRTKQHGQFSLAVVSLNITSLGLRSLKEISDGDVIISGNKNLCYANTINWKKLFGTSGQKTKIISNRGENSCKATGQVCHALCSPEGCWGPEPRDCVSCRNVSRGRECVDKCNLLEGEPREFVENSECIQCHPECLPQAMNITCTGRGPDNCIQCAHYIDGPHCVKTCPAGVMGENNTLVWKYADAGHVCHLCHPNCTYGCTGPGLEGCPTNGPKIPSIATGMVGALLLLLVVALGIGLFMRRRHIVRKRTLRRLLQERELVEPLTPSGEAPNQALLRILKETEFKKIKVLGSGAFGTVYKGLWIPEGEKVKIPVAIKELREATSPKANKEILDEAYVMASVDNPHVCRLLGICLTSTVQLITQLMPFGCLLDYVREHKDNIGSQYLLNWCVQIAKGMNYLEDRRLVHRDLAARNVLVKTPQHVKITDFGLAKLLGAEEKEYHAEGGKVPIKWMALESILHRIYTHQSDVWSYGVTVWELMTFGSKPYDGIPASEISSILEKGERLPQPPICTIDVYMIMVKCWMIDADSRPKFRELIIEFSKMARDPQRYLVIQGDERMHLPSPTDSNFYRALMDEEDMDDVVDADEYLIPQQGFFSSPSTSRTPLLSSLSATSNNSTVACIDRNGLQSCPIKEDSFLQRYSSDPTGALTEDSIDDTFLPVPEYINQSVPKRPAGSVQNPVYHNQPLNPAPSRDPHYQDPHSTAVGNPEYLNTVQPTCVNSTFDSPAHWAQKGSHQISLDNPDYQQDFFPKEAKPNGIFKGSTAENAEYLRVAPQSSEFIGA

A word on the IC50: it is the midpoint of a concentration-inhibition curve. Low readings indicate inhibition by little substance, high ones a need for much substance. As for `Cc1cc(Nc2ncnc3cc4c(nc23)N2CCN(C)C[C@@H]2CO4)ccc1Oc1ccn2ncnc2c1` [Compound 36, (R)—N-(4-([1,2,4]triazolo[1,5-a]pyridin-7-yloxy)-3-methylphenyl)-3-methyl-1,2,3,4,4a,5-hexahydropyrazino[1,2-d]pyrimido[4′,5′:5,6]pyrido[3,2-b][1,4]oxazin-11-amine], the figures for the IC50 in experiment [1] and in experiment [2] were 234 nM and more than 10000 nM, respectively. The corresponding values for `Cc1cc(Nc2ncnc3cc4c(nc23)N2CCNC[C@H]2CO4)ccc1Oc1ccc2c(c1)ncn2C` [Compound 37, (S)—N-(3-methyl-4-((1-methyl-1H-benzo[d]imidazol-5-yl)oxy)phenyl)-1,2,3,4,4a,5-hexahydropyrazino[1,2-d]pyrimido[4′,5′:5,6]pyrido[3,2-b][1,4]oxazin-11-amine] are 77.6 nM and more than 10000 nM. Consider `Cc1cc(Nc2ncnc3cc4c(nc23)N2CCN(C)C[C@H]2CO4)ccc1Oc1ccc2c(c1)ncn2C` [Compound 38, (S)-3-methyl-N-(3-methyl-4-((1-methyl-1H-benzo[d]imidazol-5-yl)oxy)phenyl)-1,2,3,4,4a,5-hexahydropyrazino[1,2-d]pyrimido[4′,5′:5,6]pyrido[3,2-b][1,4]oxazin-11-amine], for which the values for the IC50 in experiment [1] and in experiment [2] were 60.6 nM and more than 10000 nM, respectively. The corresponding values for `Cc1cc(Nc2ncnc3cc4c(nc23)N2CCNC[C@@H]2CO4)ccc1Oc1ccc2c(c1)ncn2C` [Compound 39, (R)—N-(3-methyl-4-((1-methyl-1H-benzo[d]imidazol-5-yl)oxy)phenyl)-1,2,3,4,4a,5-hexahydropyrazino[1,2-d]pyrimido[4′,5′:5,6]pyrido[3,2-b][1,4]oxazin-11-amine] are 279 nM and more than 10000 nM. For `Cc1cc(Nc2ncnc3cc4c(nc23)N2CCN(C)C[C@@H]2CO4)ccc1Oc1ccc2c(c1)ncn2C` [Compound 40, (R)-3-methyl-N-(3-methyl-4-((1-methyl-1H-benzo[d]imidazol-5-yl)oxy)phenyl)-1,2,3,4,4a,5-hexahydropyrazino[1,2-d]pyrimido[4′,5′:5,6]pyrido[3,2-b][1,4]oxazin-11-amine] the same measures were 153 nM and more than 10000 nM. Take `Cc1cc(Nc2ncnc3ccc4c(c23)OC[C@H]2CNCCN42)ccc1Oc1ccn2ncnc2c1` [Compound 41, (R)—N-(4-([1,2,4]triazolo[1,5-a]pyridin-7-yloxy)-3-methylphenyl)-6,6a,7,8,9,10-hexahydropyrazino[1′,2′:4,5][1,4]oxazino[2,3-f]quinazolin-4-amine diformic acid]: the half-inhibitory concentration (IC50) in experiment [1] is 57.7 nM; in experiment [2] it was more than 10000 nM. For `Cc1cc(Nc2ncnc3ccc4c(c23)OC[C@H]2CN(C)CCN42)ccc1Oc1ccn2ncnc2c1` [Compound 42, (R)—N-(4-([1,2,4]triazolo[1,5-a]pyridin-7-yloxy)-3-methylphenyl)-8-methyl-6,6a,7,8,9,10-hexahydropyrazino[1′,2′:4,5][1,4]oxazino[2,3-f]quinazolin-4-amine] the same measures were 31.5 nM and more than 10000 nM.

Regarding `Cc1cc(Nc2ncnc3ccc4c(c23)OC[C@@H]2CNCCN42)ccc1Oc1ccn2ncnc2c1` [Compound 43, (S)—N-(4-([1,2,4]triazolo[1,5-a]pyridin-7-yloxy)-3-methylphenyl)-6,6a,7,8,9,10-hexahydropyrazino[1′,2′:4,5][1,4]oxazino[2,3-f]quinazolin-4-amine], the values for the IC50 in experiment [1] and in experiment [2] were 76.5 nM and more than 10000 nM, respectively. For `Cc1cc(Nc2ncnc3ccc4c(c23)OC[C@@H]2CN(C)CCN42)ccc1Oc1ccn2ncnc2c1` [Compound 44, (S)—N-(4-([1,2,4]triazolo[1,5-a]pyridin-7-yloxy)-3-methylphenyl)-8-methyl-6,6a,7,8,9,10-hexahydropyrazino[1′,2′:4,5][1,4]oxazino[2,3-f]quinazolin-4-amine] the same measures were 218 nM and more than 10000 nM.

In the case of `Cc1cc(Nc2ncnc3ccc4c(c23)OC[C@H]2CNCCN42)ccc1Oc1ccc2c(c1)ncn2C` [Compound 45, (R)—N-(3-methyl-4-((1-methyl-1H-benzo[d]imidazol-5-yl)oxy)phenyl)-6,6a,7,8,9,10-hexahydropyrazino[1′,2′:4,5][1,4]oxazino[2,3-f]quinazolin-4-amine], the IC50 is 54 nM in experiment [1] and more than 10000 nM in experiment [2].

Regarding `Cc1cc(Nc2ncnc3ccc4c(c23)OC[C@H]2CN(C)CCN42)ccc1Oc1ccc2c(c1)ncn2C` [Compound 46, (R)-8-methyl-N-(3-methyl-4-((1-methyl-1H-benzo[d]imidazol-5-yl)oxy)phenyl)-6,6a,7,8,9,10-hexahydropyrazino[1′,2′:4,5][1,4]oxazino[2,3-f]quinazolin-4-amine], the IC50 in experiment [1] is 22.3 nM; in experiment [2], more than 10000 nM. Regarding `Cc1cc(Nc2ncnc3ccc4c(c23)OC[C@@H]2CNCCN42)ccc1Oc1ccc2c(c1)ncn2C` [Compound 47, (S)—N-(3-methyl-4-((1-methyl-1H-benzo[d]imidazol-5-yl)oxy)phenyl)-6,6a,7,8,9,10-hexahydropyrazino[1′,2′:4,5][1,4]oxazino[2,3-f]quinazolin-4-amine], the figures for the half-inhibitory concentration (IC50) in experiment [1] and in experiment [2] were 91.2 nM and more than 10000 nM, respectively. Regarding `Cc1cc(Nc2ncnc3ccc4c(c23)OC[C@@H]2CN(C)CCN42)ccc1Oc1ccc2c(c1)ncn2C` [Compound 48, (S)-8-methyl-N-(3-methyl-4-((1-methyl-1H-benzo[d]imidazol-5-yl)oxy)phenyl)-6,6a,7,8,9,10-hexahydropyrazino[1′,2′:4,5][1,4]oxazino[2,3-f]quinazolin-4-amine], the concentration for half-maximal inhibition (IC50) in experiment [1] was 146 nM; in experiment [2], more than 10000 nM.

As to `Cc1cc(Nc2ncnc3ccc4c(c23)OC[C@@H]2CN4CCN2)ccc1Oc1ccc2c(c1)ncn2C` [Compound 53, (3S)—N-(3-methyl-4-((1-methyl-1H-benzo[d]imidazol-5-yl)oxy)phenyl)-3,4,5,6-tetrahydro-2H-3,7-methano[1,4,7]oxadiazonino[2,3-f]quinazolin-13-amine], the half-maximal inhibitory concentration (IC50) was 541 nM in experiment [1] and more than 10000 nM in experiment [2]. The corresponding values for `Cc1cc(Nc2ncnc3ccc4c(c23)OC[C@@H]2CN4CCN2C)ccc1Oc1ccc2c(c1)ncn2C` [Compound 54, (3S)-4-methyl-N-(3-methyl-4-((1-methyl-1H-benzo[d]imidazol-5-yl)oxy)phenyl)-3,4,5,6-tetrahydro-2H-3,7-methano[1,4,7]oxadiazonino[2,3-f]quinazolin-13-amine] are 82.1 nM and more than 10000 nM.

`Cc1cc(Nc2ncnc3ccc4c(c23)OC[C@H]2CN4CCN2)ccc1Oc1ccc2c(c1)ncn2C` [Compound 55, (3R)—N-(3-methyl-4-((1-methyl-1H-benzo[d]imidazol-5-yl)oxy)phenyl)-3,4,5,6-tetrahydro-2H-3,7-methano[1,4,7]oxadiazonino[2,3-f]quinazolin-13-amine]: the 50% inhibitory concentration (IC50) in experiment [1] was 108 nM; in experiment [2] it was more than 10000 nM. Turning to `CC(=O)N1CCN2c3ccc4ncnc(Nc5ccc(Oc6ccn7ncnc7c6)c(C)c5)c4c3OC[C@H]2C1` [Compound 109, (R)-1-(4-((4-([1,2,4]triazolo[1,5-a]pyridin-7-yloxy)-3-methylphenyl)amino)-6a,7,9,10-tetrahydropyrazino[1′,2′:4,5][1,4]oxazino[2,3-f]quinazolin-8(6H)-yl)ethan-1-one], the IC50 in experiment [2] was more than 10000 nM.

Values taken from patent publication US20260078135A1, “POLYCYCLIC QUINAZOLINES FOR INHIBITION OF ERBB2” (Enliven Inc., priority 2022, published 2026).
